“And” between values parts separate entries of the source, which are not always exact repeats. Equal values may be shown once. Strand notation (5' to 3'): a small letter for the sugar, then the base; units joined by * are phosphorothioate-linked, units joined directly phosphodiester-linked; [ ] holds rarer units or linkages, { } end groups; capitals alone tell only the bases. e = 2'-O-(2-methoxyethyl) (MOE); f = 2'-fluoro

Series [1] is described as follows: Ex vivo liver homogenate stability assay (HPLC-TOF MS).
Series [2] deals with collagen 1A1 and collagen 3A1 expression in kidney, unilateral ureteral obstruction (UUO) model. The experiment in a line: UUO model of kidney fibrosis: kidney collagen 1A1 and collagen 3A1 expression by real-time PCR. The series is classed as in vivo, mice. The settings on record: for Collagen 1A1 (Normalized Expression), individual animal / Collagen 3A1 (Normalized Expression), individual animal: UUO, 20 mg/kg at days -3, -1, +5 (prophylactic), kidney at day 11, real-time PCR normalized to GAPDH then sham, 20 mg/kg. On the procedure: Unilateral ureteral obstruction (UUO) is a well-established experimental model of renal injury leading to interstitial fibrosis, and thus is used as an experimental model that is reflective of human kidney disease. UUO is induced by surgically ligating a single ureter. As fibrosis is characterized by an increase in collagen, the presence and extent of kidney fibrosis may be determined by measuring collagen content. Both collagen 1A1 (Col 1A1) and collagen 3A1 (Col 3A1) are measured to assess collagen content. Kidney fibrosis may be visualized by staining tissue samples with picro-sirius red to detect increases in collagen content. Kidney fibrosis may also be observed by measuring the amount of hydroxyproline, which is a major component of collagen, in a sample.
The cEt-containing anti-miR-21 compounds found to be active in the luciferase assay were tested in the UUO model of kidney fibrosis. 25919 comprising 2′-MOE and 2′-fluoro modifications is known to inhibit miR-21 activity in vivo and was included as a positive control. Groups of 8 animals each were treated as follows: UUO only, UUO with PBS, or UUO with anti-miR-21 compound. Relative to the day of the UUO procedure, PBS or anti-miR-21 compound was administered at days −3, −1, and +5. Anti-miR-21 compounds were administered at a dose of 20 mg/kg. As the anti-miR compounds were administered prior to the UUO procedure, this dosing regimen is considered a prophylactic treatment. At day 11, animals were sacrificed and kidney was isolated for measurement of collagen expression. Collagen expression was measured by real-time PCR and normalized first to GAPDH and then to the sham control animals. […]
In general terms: In qPCR the cycle at which signal appears reflects the starting amount.

The next series has as its system miR-21. Put plainly: miR-21 luciferase sensor assay in Hela cells. The class given is cell-based. The settings on record: Hela cells. Here is the method: The compounds were assessed for miR-21 inhibitory activity in a luciferase assay. A microRNA luciferase sensor construct was engineered using pGL3-MCS2 (Promega). The construct was introduced into Hela cells to test the ability of anti-miR compounds to inhibit activity of miR-21. In this assay, miR-21 present in the Hela cells binds to its cognate site(s) in the luciferase sensor construct, and suppresses luciferase expression. When the appropriate anti-miR is introduced into the cells, it binds to miR-21 and relieves suppression of luciferase expression. Thus, in this assay anti-miRs that are effective inhibitors of miR-21 expression will cause an increase in luciferase expression.
Day 1: Hela cells (ATCC), stably transfected with a luciferase construct engineered to contain a sequence complementary of miR-21, were seeded in T-170 flasks (BD Falcon) at 3.5*10^6 cells/flask. Hela cells were grown in Dulbecco's Modified Eagle Medium with High Glucose (Invitrogen).
Day 2: Each flask of Hela cells was transfected with 0.5 ug of a phRL sensor plasmid (Promega) expressing Renilla to be used in normalization. Hela cells were transfected using 20 ul Lipofectamine 2000/flask (Invitrogen). After 4 hours of transfection, cells were washed with PBS and trypsinized. Hela cells were plated at 40 k/well in 24 well plates (BD Falcon) and left overnight.
Day 3: Hela cells were transfected with anti-miRs using Lipofectin (Invitrogen) at 2.5 ul Lipofectin/100 nM ASO/ml Opti-MEM I Reduced Serum Medium (Invitrogen) for 4 hours. After ASO transfection, Hela cells were refed with Dulbecco's Modified Eagle Medium with High Glucose (Invitrogen).
Day 4: Hela cells are passively lysed and luciferase activity measured using the Dual-Luciferase Reporter Assay System (Promega).
The luciferase assay was performed to test the ability of anti-miRs with the nucleoside patterns described herein to inhibit the activity of miR-21. Results were compared to a ‘mock’ treatment, in which cells received no anti-miR treatment. The experiment was repeated and results of two experimental replicates are shown in the following Table B, as the luciferase value normalized to beta-galactosidase activity.
The luciferase assay was performed as described herein to test the ability of anti-miRs in Table F to inhibit the activity of miR-21. Results were compared to a ‘mock’ treatment, in which cells received no anti-miR treatment. The experiment was repeated and results of two experimental replicates are shown in the following Table D, as fold change in luciferase value relative to the mock treatment.

Series [3] has as its system collagen 1A1 and collagen 3A1 expression in kidney, ischemia reperfusion injury (IRI) model. The experiment in a line: Unilateral ischemia reperfusion injury (IRI) model: kidney collagen 1A1 and collagen 3A1 expression. The class given is in vivo, mouse. Conditions: unilateral IRI. On the procedure: (§1) A model of ischemia reperfusion injury (IRI) is created in the mouse through unilateral or bilateral clamping of kidney arteries, which leads to tubule damage, inflammation, and fibrosis. Kidney dysfunction can occur either early (<5 days) or late (>7 days) in this model, with the early time points useful to test candidate agents for the treatment of acute kidney injury, and the later time points useful to model chronic fibrosis.
(§2) Anti-miR-21 compounds were tested in the unilateral IRI model. Unilateral IRI was induced for a period of 30 minutes. Treatment groups were as follows: sham IRI procedure; IRI with PBS administered subcutaneously; IRI with anti-miR-21 compound 25070 administered intraperitoneally at a dose of 20 mg/kg; the 2′-fluoro/2′-MOE modified anti-miR-21 25919 administered intraperitoneally at a dose of 20 mg/kg; and a 2′-fluoro/2′ modified mismatch anti-miR-21 (having three mismatches to the sequence of miR-21) 25319 administered intraperitoneally at a dose of 20 mg/kg. PBS or anti-miR compound was administered on days 5, 6, and 7 following IRI, and animals were sacrificed 14 days after IRI. As anti-miR compound is administered 5 days following the injury to the kidney, or later, when fibrosis has already occurred to some extent, this treatment regimen is considered a therapeutic regimen, rather than a prophylactic regimen.
(§3) Kidney tissue was collected for analysis of collagen 1A1 and collagen 3A1 expression (shown in Table O), and collagen area fraction (shown in Table P).
(§4) A similar study was performed with the same treatment groups and additional days of treatment. In this study, treatments were administered intraperitoneally at days 5, 6, 7, 14, and 21 following the IRI procedure Animals were sacrificed on Day 27, and kidney tissue was collected for analysis of collagen 1A1 and collagen 3A1 expression, as well as collagen area fraction.
In order to assess the flexibility of administration of the anti-miR-21 compound 25070, the activity of the compound in the 14 day study above, where anti-miR-21 was administered at […] following the IRI procedure, to a different 14 day study where anti-miR-21 was administered intraperitoneally at days 3, 5, and 7 following the IRI procedure.

The test system of series [4] is ischemia reperfusion injury (IRI) model. Put plainly: Unilateral IRI model: collagen area fraction of kidney tissue. The class given is in vivo, mouse. Here is the method: as §1, §2, §3, §4
Setting [5] is: 5 μM in liver homogenate (50 mg tissue per ml), 24 hours at 37° C.
The mark [6] stands for this setting: .16 nM oligonucleotide, mock transfection 45.
The mark [7] stands for this setting: .8 nM oligonucleotide, mock transfection 33.
The mark [8] stands for this setting: 4 nM oligonucleotide, mock transfection 50.
[9] abbreviates: 20 mg/kg intraperitoneally on days 5, 6, 7, sacrifice 14 days after IRI, 20 mg/kg.
[10] abbreviates: 20 mg/kg intraperitoneally on days 5, 6, 7, sacrifice 14 days after IRI, group mean.
Setting [11] is: intraperitoneally on days 5, 6, 7, 14, 21, sacrifice Day 27.

“AECSATCSAGTCSTGAUSAAGCSTAS (ACATCAGTCTGATAAGCTA; 2'-MOE and cEt modifications) [Compound 25923]”: in series [1] (setting [5]), the “compound lacking the 3'-terminal nucleoside” value is on record as “about 18%” and the “compound present as the full-length compound” value was “About 68%”. For the same substance, in series [1] (5 μM oligonucleotide in liver homogenate (50 mg tissue per ml), 24 hours, 37° C., decrease of full-length compound), the “ex vivo (liver) N %↓” value turned out to be 17%. Besides, the “ex vivo (liver) % N-1” value in series [1] (5 μM oligonucleotide in liver homogenate, 24 hours, 37° C., compound lacking one terminal nucleoside) was 13%. Also, the “ex vivo (liver) % Endo” value in series [1] (5 μM oligonucleotide in liver homogenate, 24 hours, 37° C., endonuclease products) is 2-3%.
Turning to “TE^MeCAACSATCSAGTCSTGAUSAAGCSTAE (TCAACATCAGTCTGATAAGCTA; listed as DNA, chemistry not fully specified) [Compound 25082]”, in series [2], the “Collagen 1A1 (Normalized Expression), individual animal” value is 122.2 and 188.3 and 102.5 and 67.6 and 40.6 and 44.1 and 73.8 and 94.7; the “Collagen 3A1 (Normalized Expression), individual animal” value (“Collagen 3A1 (Normalized Expression)” below) was 62.9 and 78.9 and 82.2 and 43.8 and 32.6 and 34.3 and 75.8 and 62.5. Also, the “reduction in collagen expression (in words)” value in series [2] (meta-analysis of repeated UUO studies, 20 mg/kg at days -3, -1, +5) is recorded as “did not consistently demonstrate a reduction in collagen expression”. For the same substance, the “luciferase value normalized to beta-galactosidase activity” value (from here on “luciferase value normalized”) with miR-21 (setting [6]) is 70. Moreover, the “luciferase value normalized” value in the series with miR-21 (setting [7]) is reported as 89. The “inhibition of miR-21 in the luciferase assay (in words)” value in the series with miR-21 is recorded as “demonstrated inhibition of miR-21 in a dose-dependent manner”.
As for “TE^MeCEAEAECSAETECSAEGETECSTEGEAEUSAEAEGECSTEAE (TCAACATCAGTCTGATAAGCTA; listed as DNA, chemistry not fully specified) [Compound 25068]”, the “Collagen 1A1 (Normalized Expression), individual animal” value in series [2] is 84.7 and 75.1 and 85.5 and 89.1 and 90.4 and 125.8 and 124.4. Besides, the “Collagen 3A1 (Normalized Expression)” value in series [2] is 64.8 and 56.2 and 47.4 and 76.2 and 57.0 and 63.0 and 59.6. In addition, the “luciferase value normalized” value in the series on miR-21 (setting [8]) was 64; in the series with miR-21 (20 nM oligonucleotide, mock transfection 47), 86; in the series on miR-21 (100 nM oligonucleotide, mock transfection 40), 97; with miR-21 (setting [6]), 45; in the series with miR-21 (setting [7]), 54. The “inhibition of miR-21 in the luciferase assay (in words)” value in the series on miR-21 is “demonstrated inhibition of miR-21 in a dose-dependent manner”.
Regarding “UECEAFAFCFAFUFCFAFGFUFCEUEGEAFUFAFAFGFCFUEAE (eU*eC*fA*fA*fC*fA*fU*fC*fA*fG*fU*eC*eU*eG*fA*fU*fA*fA*fG*fC*eU*eA) [Compound 25919, positive control, reference compound]”, the “Collagen 1A1 (Normalized Expression), individual animal” value is 108.7 and 103.9 and 29.5 and 95.8 and 35.5 and 42.2 and 64.1 and 96.4 in series [3] (setting [9]); 75.5 and 50.4 and 49.2 and 43.2 and 41.7 and 53.6 and 44.8 and 28.0 in series [3] (setting [11]); 150.2 and 54.2 and 84.6 and 67.7 and 78.7 and 62.2 and 89.2 and 106.2 in series [2]. Further, the “Collagen 3A1 (Normalized Expression)” value in series [3] (setting [9]) is 87.5 and 72.3 and 14.3 and 104 .4 and 27.1 and 34.9 and 56.1 and 82.8; in series [3] (setting [11]) it was 40.2 and 43.1 and 34.5 and 35.7 and 41.1 and 36.9 and 24.5 and 22.9; in series [2], 67.1 and 33.9 and 87.6 and 47.3 and 67.7 and 46.7 and 47.0 and 57.8. The “Collagen 1A1 (Normalized Expression), Mean” value in series [3] (setting [10]) turned out to be 72.0. Moreover, the “Collagen Area Fraction (#), individual animal” value is 7.093 and 8.254 and 8.095 and 8.559 and 8.681 and 6.31 and 8.416 and 9.905 in series [4] (setting [9]); 11.882 and 9.755 and 9.506 and 12.654 and 20.319 and 11.551 and 12.224 and 14.468 in series [4] (setting [11]). Further, the “Collagen Area Fraction (#), Mean” value in series [4] (setting [10]) was 8.2. Besides, the “luciferase value normalized” value in the series on miR-21 (setting [8]) is reported as 84; in the series with miR-21 (setting [6]) it was 40; in the series with miR-21 (setting [7]), 53.

(Values after patent US9790496B2, “Microrna compounds and methods for modulating MIR-21 activity” (Regulus Therapeutics, Inc., priority 2011, dated 2017).)
